Data: patent publication US9951063B2, “8-(piperazin-1-yl)-1,2,3,4-tetrahydro-isoquinoline derivatives” (IDORSIA PHARMACEUTICALS LTD, priority 2014, dated 2018)

Molecular target: human CXCR3A (Homo sapiens (Human), UniProt P49682)
Test: FLIPR assay (inhibition of CXCL10-induced calcium signal)
Assay type: cell-based
Conditions: engineered CHO-K1 cells expressing human CXCR3A coupled to Galpha(16); Fluo-4-AM; CXCL10 agonist 20 nM; mean values where determined several times
Description: The bioactivity of compounds is tested in a fluorometric imaging plate reader (FLIPR: Molecular Devices) using engineered CHO-K1 cells expressing the human CXCR3A (GenBank: AY242128) coupled to a G protein (Galpha(16)). Cells are plated the day prior to bioassay in F12 medium supplemented with 10% FBS and G418 and hygromycin antibiotics to maintain recombinant selection. At the day of bioassay, cells are washed and dye loaded for one hour with Fluo-4-AM (Invitrogen) in Hanks Balanced Salt Solution (Invitrogen), buffered with 20 mM Hepes at pH 7.4 and sodium bicarbonate (0.038%), containing 5 mM probenecid. This buffer, but lacking the dye and containing probenecid at a concentration of 2.5 mM, is also used for washing steps (wash buffer); or lacking both dye and probenecid but supplemented with 0.1% BSA for compound dilution steps (dilution buffer). Cells are washed free of excess dye and 60 microliter of wash buffer is added. Stock solutions of test compounds are made up at a concentration of 10 mM in DMSO, and serially diluted in dilution buffer to concentrations required for inhibition dose response curves. After a 10 minute incubation period at 37° C., 10 microliters of each compound dilution are transferred from a compound plate to the plate containing the recombinant cells in the FLIPR instrument according to the manufacturer's instructions. Following basal readings, 10 microliter CXCL10 agonist at a concentration of 20 nM (from Peprotech) is added, again using the FLIPR instrument. Changes in fluorescence are monitored before and after addition of the test compounds. Emission peak values above base level after CXCL10 addition are exported after base line subtraction.
The calculated IC50 values may fluctuate depending on the daily assay performance. Fluctuations of this kind are known to those skilled in the art. In the case where IC50 values have been determined several times for the same compound, mean values are given.

Sequence of human CXCR3A (P49682 whole entry): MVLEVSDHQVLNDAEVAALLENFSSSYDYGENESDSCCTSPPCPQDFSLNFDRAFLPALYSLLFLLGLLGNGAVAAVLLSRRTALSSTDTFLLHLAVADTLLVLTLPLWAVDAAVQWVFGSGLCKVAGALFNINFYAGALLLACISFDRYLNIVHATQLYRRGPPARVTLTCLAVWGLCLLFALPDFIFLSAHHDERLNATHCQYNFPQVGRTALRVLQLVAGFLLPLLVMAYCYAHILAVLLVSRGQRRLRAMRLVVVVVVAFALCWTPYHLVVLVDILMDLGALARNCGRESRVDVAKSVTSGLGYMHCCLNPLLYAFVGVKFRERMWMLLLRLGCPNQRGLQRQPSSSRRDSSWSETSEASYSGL

| SMILES | IC50 [nM] |
| --- | --- |
| Cc1ccn(CC(=O)N2CCN(c3ccc(C(F)(F)F)c4c3CN(c3cnc(C5CC5)nc3)CC4)C[C@H]2C)n1 [Example 48, 1-{(R)-4-[2-(2-Cyclopropyl-pyrimidin-5-yl)-5-trifluoromethyl-1,2,3,4-tetrahydro-isoquinolin-8-yl]-2-methyl-piperazin-1-yl}-2-(3-methyl-pyrazol-1-yl)-ethanone] | 1.4 |
| Cc1nc(C)n(CC(=O)N2CCN(c3ccc(C(F)(F)F)c4c3CN(c3cnc(N(C)C)nc3)CC4)C[C@H]2C)n1 [Example 50, 1-{(R)-4-[2-(2-Dimethylamino-pyrimidin-5-yl)-5-trifluoromethyl-1,2,3,4-tetrahydro-isoquinolin-8-yl]-2-methyl-piperazin-1-yl}-2-(3,5-dimethyl-[1,2,4]triazol-1-yl)-ethanone] | 2.26 |
| Cc1ccnn1CC(=O)N1CCN(c2ccc(C(F)(F)F)c3c2CN(c2cnc(N(C)C)nc2)CC3)C[C@H]1C [Example 52, 1-{(R)-4-[2-(2-Dimethylamino-pyrimidin-5-yl)-5-trifluoromethyl-1,2,3,4-tetrahydro-isoquinolin-8-yl]-2-methyl-piperazin-1-yl}-2-(5-methyl-pyrazol-1-yl)-ethanone] | 4.1 |
| CCOc1ncc(N2CCc3c(C(F)(F)F)ccc(N4CCN(C(=O)Cn5nc(C)nc5C)[C@H](C)C4)c3C2)cn1 [Example 54, 2-(3,5-Dimethyl-[1,2,4]triazol-1-yl)-1-{(R)-4-[2-(2-ethoxy-pyrimidin-5-yl)-5-trifluoromethyl-1,2,3,4-tetrahydro-isoquinolin-8-yl]-2-methyl-piperazin-1-yl}-ethanone] | 6.22 |
| CCOc1ncc(N2CCc3c(C(F)(F)F)ccc(N4CCN(C(=O)Cn5nc(C)cc5C)[C@H](C)C4)c3C2)cn1 [Example 55, 2-(3,5-Dimethyl-pyrazol-1-yl)-1-{(R)-4-[2-(2-ethoxy-pyrimidin-5-yl)-5-trifluoromethyl-1,2,3,4-tetrahydro-isoquinolin-8-yl]-2-methyl-piperazin-1-yl}-ethanone] | 10 |
| CCc1ncc(N2CCc3c(C(F)(F)F)ccc(N4CCN(C(=O)Cn5nc(C)nc5C)[C@H](C)C4)c3C2)cn1 [Example 58, 2-(3,5-Dimethyl-[1,2,4]triazol-1-yl)-1-{(R)-4-[2-(2-ethyl-pyrimidin-5-yl)-5-trifluoromethyl-1,2,3,4-tetrahydro-isoquinolin-8-yl]-2-methyl-piperazin-1-yl}-ethanone] | 16.9 |
| COc1ccc(C(=O)N2CCc3cccc(N4CCN(C(=O)Cn5cnc6cccnc65)[C@H](C)C4)c3C2)cc1 [Example 62, 2-Imidazo[4,5-b]pyridin-3-yl-1-{(R)-4-[2-(4-methoxy-benzoyl)-1,2,3,4-tetrahydro-isoquinolin-8-yl]-2-methyl-piperazin-1-yl}-ethanone] | 121 |
| COc1ccc(CCC(=O)N2CCc3cccc(N4CCN(C(=O)Cn5cnc6cccnc65)[C@H](C)C4)c3C2)cc1 [Example 64, 1-{8-[(R)-4-(2-Imidazo[4,5-b]pyridin-3-yl-acetyl)-3-methyl-piperazin-1-yl]-3,4-dihydro-1H-isoquinolin-2-yl}-3-(4-methoxy-phenyl)-propan-1-one] | 188 |
| C[C@@H]1CN(c2cccc3c2CN(C(=O)C2CCCC2)CC3)CCN1C(=O)Cn1cnc2cccnc21 [Example 69, 1-[(R)-4-(2-Cyclopentanecarbonyl-1,2,3,4-tetrahydro-isoquinolin-8-yl)-2-methyl-piperazin-1-yl]-2-imidazo[4,5-b]pyridin-3-yl-ethanone] | 21.7 |
| C[C@@H]1CN(c2cccc3c2CN(C(=O)C2CCCCC2)CC3)CCN1C(=O)Cn1cnc2cccnc21 [Example 70, 1-[(R)-4-(2-Cyclohexanecarbonyl-1,2,3,4-tetrahydro-isoquinolin-8-yl)-2-methyl-piperazin-1-yl]-2-imidazo[4,5-b]pyridin-3-yl-ethanone] | 55.5 |

Further lines, results first:

| IC50 [nM] | SMILES |
| --- | --- |
| 7.27 | C[C@@H]1CN(c2ccc(C(F)(F)F)c3c2CN(c2cnc(C4CC4)nc2)CC3)CCN1C(=O)Cn1ncc2cccnc21 [Example 47, 1-{(R)-4-[2-(2-Cyclopropyl-pyrimidin-5-yl)-5-trifluoromethyl-1,2,3,4-tetrahydro-isoquinolin-8-yl]-2-methyl-piperazin-1-yl}-2-pyrazolo[3,4-b]pyridin-1-yl-ethanone] |
| 3.56 | Cc1ccnn1CC(=O)N1CCN(c2ccc(C(F)(F)F)c3c2CN(c2cnc(C4CC4)nc2)CC3)C[C@H]1C [Example 49, 1-{(R)-4-[2-(2-Cyclopropyl-pyrimidin-5-yl)-5-trifluoromethyl-1,2,3,4-tetrahydro-isoquinolin-8-yl]-2-methyl-piperazin-1-yl}-2-(5-methyl-pyrazol-1-yl)-ethanone] |
| 4.93 | Cc1ccn(CC(=O)N2CCN(c3ccc(C(F)(F)F)c4c3CN(c3cnc(N(C)C)nc3)CC4)C[C@H]2C)n1 [Example 51, 1-{(R)-4-[2-(2-Dimethylamino-pyrimidin-5-yl)-5-trifluoromethyl-1,2,3,4-tetrahydro-isoquinolin-8-yl]-2-methyl-piperazin-1-yl}-2-(3-methyl-pyrazol-1-yl)-ethanone] |
| 6.15 | C[C@@H]1CN(c2ccc(C(F)(F)F)c3c2CN(c2cnc(N(C)C)nc2)CC3)CCN1C(=O)Cn1ncc2cccnc21 [Example 53, 1-{(R)-4-[2-(2-Dimethylamino-pyrimidin-5-yl)-5-trifluoromethyl-1,2,3,4-tetrahydro-isoquinolin-8-yl]-2-methyl-piperazin-1-yl}-2-pyrazolo[3,4-b]pyridin-1-yl-ethanone] |
| 8.14 | Cc1cc(C)n(CC(=O)N2CCN(c3ccc(C(F)(F)F)c4c3CN(c3ncc(-c5ccccc5)o3)CC4)C[C@H]2C)n1 [Example 56, 2-(3,5-Dimethyl-pyrazol-1-yl)-1-{(R)-2-methyl-4-[2-(5-phenyl-oxazol-2-yl)-5-trifluoromethyl-1,2,3,4-tetrahydro-isoquinolin-8-yl]-piperazin-1-yl}-ethanone] |
| 26.5 | Cc1cc(C)n(CC(=O)N2CCN(c3ccc(C(F)(F)F)c4c3CN(c3nc5ccccc5s3)CC4)C[C@H]2C)n1 [Example 57, 1-[(R)-4-(2-Benzothiazol-2-yl-5-trifluoromethyl-1,2,3,4-tetrahydro-isoquinolin-8-yl)-2-methyl-piperazin-1-yl]-2-(3,5-dimethyl-pyrazol-1-yl)-ethanone] |
| 12.3 | Cc1nc(C)n(CC(=O)N2CCN(c3ccc(C(F)(F)F)c4c3CN(c3cnc(C(F)(F)F)nc3)CC4)C[C@H]2C)n1 [Example 59, 2-(3,5-Dimethyl-[1,2,4]triazol-1-yl)-1-{(R)-2-methyl-4-[5-trifluoromethyl-2-(2-trifluoromethyl-pyrimidin-5-yl)-1,2,3,4-tetrahydro-isoquinolin-8-yl]-piperazin-1-yl}-ethanone] |
| 7.94 | C[C@@H]1CN(c2cccc3c2CN(C(=O)OCc2ccccc2)CC3)CCN1C(=O)Cn1cnc2cccnc21 [Example 60, 8-[(R)-4-(2-Imidazo[4,5-b]pyridin-3-yl-acetyl)-3-methyl-piperazin-1-yl]-3,4-dihydro-1H-isoquinoline-2-carboxylic acid benzyl ester] |
| 223 | C[C@@H]1CN(c2cccc3c2CN(C(=O)C2CC2)CC3)CCN1C(=O)Cn1cnc2cccnc21 [Example 61, 1-[(R)-4-(2-Cyclopropanecarbonyl-1,2,3,4-tetrahydro-isoquinolin-8-yl)-2-methyl-piperazin-1-yl]-2-imidazo[4,5-b]pyridin-3-yl-ethanone] |
| 668 | C[C@@H]1CN(c2cccc3c2CN(C(=O)Cc2cccnc2)CC3)CCN1C(=O)Cn1cnc2cccnc21 [Example 63, 2-Imidazo[4,5-b]pyridin-3-yl-1-{(R)-2-methyl-4-[2-(2-pyridin-3-yl-acetyl)-1,2,3,4-tetrahydro-isoquinolin-8-yl]-piperazin-1-yl}-ethanone] |
| 483 | C[C@@H]1CN(c2cccc3c2CN(C(=O)c2cocn2)CC3)CCN1C(=O)Cn1cnc2cccnc21 [Example 65, 2-Imidazo[4,5-b]pyridin-3-yl-1-{(R)-2-methyl-4-[2-(oxazole-4-carbonyl)-1,2,3,4-tetrahydro-isoquinolin-8-yl]-piperazin-1-yl}-ethanone] |
| 304 | C[C@@H]1CN(c2cccc3c2CN(C(=O)Cn2ccc4ccccc42)CC3)CCN1C(=O)Cn1cnc2cccnc21 [Example 66, 2-Imidazo[4,5-b]pyridin-3-yl-1-{(R)-4-[2-(2-indol-1-yl-acetyl)-1,2,3,4-tetrahydro-isoquinolin-8-yl]-2-methyl-piperazin-1-yl}-ethanone] |
| 614 | CC(C)C(=O)N1CCc2cccc(N3CCN(C(=O)Cn4cnc5cccnc54)[C@H](C)C3)c2C1 [Example 67, 1-{8-[(R)-4-(2-Imidazo[4,5-b]pyridin-3-yl-acetyl)-3-methyl-piperazin-1-yl]-3,4-dihydro-1H-isoquinolin-2-yl}-2-methyl-propan-1-one] |
| 599 | COCC(=O)N1CCc2cccc(N3CCN(C(=O)Cn4cnc5cccnc54)[C@H](C)C3)c2C1 [Example 68, 2-Imidazo[4,5-b]pyridin-3-yl-1-{(R)-4-[2-(2-methoxy-acetyl)-1,2,3,4-tetrahydro-isoquinolin-8-yl]-2-methyl-piperazin-1-yl}-ethanone] |
